Measured values: PubChem BioAssay AID1259407 (Chemical Carcinogenesis Research Information System (CCRIS), 2018)
Active and inactive are the calls of the source. The rule behind the calls is not given here.

Test system: CCRIS mutagenicity, Ames/micronucleus/aberration tests
Assay: CCRIS mutagenicity studies
From the text: The CCRIS database contains chemical records with carcinogenicity, mutagenicity, tumor promotion, and tumor inhibition test results. It was developed by the National Cancer Institute (NCI). Data are derived from studies cited in primary journals, current awareness tools, NCI reports, and other sources. Test results have been reviewed by experts in carcinogenesis and mutagenesis.
CCRIS provides historical information from the years 1985 - 2011. It is no longer updated.
This is an archive assay for CCRIS mutagenicity studies.

[1] = Test System: AMES SALMONELLA TYPHIMURIUM, Strain/Indicator: TA98, Metabolic Activation: NONE, Method: STANDARD PLATE
[2] = Test System: AMES SALMONELLA TYPHIMURIUM, Strain/Indicator: TA100, Metabolic Activation: NONE, Method: STANDARD PLATE

O=C(Nc1ccccc1Cl)c1csc([N+](=O)[O-])c1
mutagenic call [1]: active; positive
mutagenic call [2]: active; positive

O=C(O)c1cccc(Cl)c1
mutagenic call (Test System: AMES SALMONELLA TYPHIMURIUM, Strain/Indicator: TA97, Metabolic Activation: HAMSTER, LIVER, S-9, AROCLOR 1254 (10%), Method: PREINCUBATION): inactive; negative
mutagenic call (Test System: AMES SALMONELLA TYPHIMURIUM, Strain/Indicator: TA97, Metabolic Activation: HAMSTER, LIVER, S-9, AROCLOR 1254 (30%), Method: PREINCUBATION): inactive; negative
mutagenic call (Test System: AMES SALMONELLA TYPHIMURIUM, Strain/Indicator: TA97, Metabolic Activation: NONE, Method: PREINCUBATION): inactive; negative
mutagenic call (Test System: AMES SALMONELLA TYPHIMURIUM, Strain/Indicator: TA97, Metabolic Activation: RAT, LIVER, S-9, AROCLOR 1254 (10%), Method: PREINCUBATION): inactive; negative
mutagenic call (Test System: AMES SALMONELLA TYPHIMURIUM, Strain/Indicator: TA97, Metabolic Activation: RAT, LIVER, S-9, AROCLOR 1254 (30%), Method: PREINCUBATION): inactive; negative
mutagenic call (Test System: AMES SALMONELLA TYPHIMURIUM, Strain/Indicator: TA98, Metabolic Activation: HAMSTER, LIVER, S-9, AROCLOR 1254 (10%), Method: PREINCUBATION): inactive; negative
mutagenic call (Test System: AMES SALMONELLA TYPHIMURIUM, Strain/Indicator: TA98, Metabolic Activation: HAMSTER, LIVER, S-9, AROCLOR 1254 (30%), Method: PREINCUBATION): inactive; negative
mutagenic call (Test System: AMES SALMONELLA TYPHIMURIUM, Strain/Indicator: TA98, Metabolic Activation: NONE, Method: PREINCUBATION): inactive; negative
mutagenic call (Test System: AMES SALMONELLA TYPHIMURIUM, Strain/Indicator: TA98, Metabolic Activation: RAT LIVER S-9, PCB, Method: PREINCUBATION): inactive; negative
mutagenic call (Test System: AMES SALMONELLA TYPHIMURIUM, Strain/Indicator: TA98, Metabolic Activation: RAT, LIVER, S-9, AROCLOR 1254 (10%), Method: PREINCUBATION): inactive; negative
mutagenic call (Test System: AMES SALMONELLA TYPHIMURIUM, Strain/Indicator: TA98, Metabolic Activation: RAT, LIVER, S-9, AROCLOR 1254 (30%), Method: PREINCUBATION): inactive; negative
mutagenic call (Test System: AMES SALMONELLA TYPHIMURIUM, Strain/Indicator: TA100, Metabolic Activation: HAMSTER, LIVER, S-9, AROCLOR 1254 (10%), Method: PREINCUBATION): inactive; negative
mutagenic call (Test System: AMES SALMONELLA TYPHIMURIUM, Strain/Indicator: TA100, Metabolic Activation: HAMSTER, LIVER, S-9, AROCLOR 1254 (30%), Method: PREINCUBATION): inactive; negative
mutagenic call (Test System: AMES SALMONELLA TYPHIMURIUM, Strain/Indicator: TA100, Metabolic Activation: NONE, Method: PREINCUBATION): inactive; negative
mutagenic call (Test System: AMES SALMONELLA TYPHIMURIUM, Strain/Indicator: TA100, Metabolic Activation: RAT LIVER S-9, PCB, Method: PREINCUBATION): inactive; negative
mutagenic call (Test System: AMES SALMONELLA TYPHIMURIUM, Strain/Indicator: TA100, Metabolic Activation: RAT, LIVER, S-9, AROCLOR 1254 (10%), Method: PREINCUBATION): inactive; negative
mutagenic call (Test System: AMES SALMONELLA TYPHIMURIUM, Strain/Indicator: TA100, Metabolic Activation: RAT, LIVER, S-9, AROCLOR 1254 (30%), Method: PREINCUBATION): inactive; negative
mutagenic call (Test System: AMES SALMONELLA TYPHIMURIUM, Strain/Indicator: TA104, Metabolic Activation: NONE, Method: PREINCUBATION): inactive; negative
mutagenic call (Test System: AMES SALMONELLA TYPHIMURIUM, Strain/Indicator: TA104, Metabolic Activation: RAT LIVER S-9, PCB, Method: PREINCUBATION): inactive; negative
mutagenic call (Test System: AMES SALMONELLA TYPHIMURIUM, Strain/Indicator: TA1535, Metabolic Activation: HAMSTER, LIVER, S-9, AROCLOR 1254 (10%), Method: PREINCUBATION): inactive; negative
mutagenic call (Test System: AMES SALMONELLA TYPHIMURIUM, Strain/Indicator: TA1535, Metabolic Activation: HAMSTER, LIVER, S-9, AROCLOR 1254 (30%), Method: PREINCUBATION): inactive; negative
mutagenic call (Test System: AMES SALMONELLA TYPHIMURIUM, Strain/Indicator: TA1535, Metabolic Activation: NONE, Method: PREINCUBATION): inactive; negative
mutagenic call (Test System: AMES SALMONELLA TYPHIMURIUM, Strain/Indicator: TA1535, Metabolic Activation: RAT, LIVER, S-9, AROCLOR 1254 (10%), Method: PREINCUBATION): inactive; negative
mutagenic call (Test System: AMES SALMONELLA TYPHIMURIUM, Strain/Indicator: TA1535, Metabolic Activation: RAT, LIVER, S-9, AROCLOR 1254 (30%), Method: PREINCUBATION): inactive; negative
mutagenic call (Test System: AMES SALMONELLA TYPHIMURIUM, Strain/Indicator: TA1537, Metabolic Activation: HAMSTER, LIVER, S-9, AROCLOR 1254 (30%), Method: PREINCUBATION): inactive; negative
mutagenic call (Test System: AMES SALMONELLA TYPHIMURIUM, Strain/Indicator: TA1537, Metabolic Activation: NONE, Method: PREINCUBATION): inactive; negative
mutagenic call (Test System: AMES SALMONELLA TYPHIMURIUM, Strain/Indicator: TA1537, Metabolic Activation: RAT, LIVER, S-9, AROCLOR 1254 (30%), Method: PREINCUBATION): inactive; negative
mutagenic call (Test System: E.COLI, Strain/Indicator: WP2 UVRA, Metabolic Activation: NONE, Method: PREINCUBATION): inactive; negative
mutagenic call (Test System: E.COLI, Strain/Indicator: WP2 UVRA, Metabolic Activation: RAT LIVER S-9, PCB, Method: PREINCUBATION): inactive; negative

O=[N+]([O-])c1cc2[nH]c3ccc4ccccc4c3c2c2ccccc12
mutagenic call [1]: inactive; negative
mutagenic call (Test System: AMES SALMONELLA TYPHIMURIUM, Strain/Indicator: TA98, Metabolic Activation: RAT, LIVER, S-9, 3-METHYLCHOLANTHRENE, Method: STANDARD PLATE): active; positive
mutagenic call [2]: inactive; negative
mutagenic call (Test System: AMES SALMONELLA TYPHIMURIUM, Strain/Indicator: TA100, Metabolic Activation: RAT, LIVER, S-9, 3-METHYLCHOLANTHRENE, Method: STANDARD PLATE): inactive; negative

C[C@]12C=CC3=C4CCC(=O)C=C4CC[C@H]3[C@@H]1CC[C@H]2O
mutagenic call [1]: inactive; negative
mutagenic call (Test System: AMES SALMONELLA TYPHIMURIUM, Strain/Indicator: TA98, Metabolic Activation: RAT, LIVER, S-9, AROCLOR 1254, Method: STANDARD PLATE): inactive; negative
mutagenic call [2]: inactive; negative
mutagenic call (Test System: AMES SALMONELLA TYPHIMURIUM, Strain/Indicator: TA100, Metabolic Activation: RAT, LIVER, S-9, AROCLOR 1254, Method: STANDARD PLATE): inactive; negative
mutagenic call (Test System: AMES SALMONELLA TYPHIMURIUM, Strain/Indicator: TA1535, Metabolic Activation: NONE, Method: STANDARD PLATE): inactive; negative
mutagenic call (Test System: AMES SALMONELLA TYPHIMURIUM, Strain/Indicator: TA1535, Metabolic Activation: RAT, LIVER, S-9, AROCLOR 1254, Method: STANDARD PLATE): inactive; negative
mutagenic call (Test System: AMES SALMONELLA TYPHIMURIUM, Strain/Indicator: TA1537, Metabolic Activation: NONE, Method: STANDARD PLATE): inactive; negative
mutagenic call (Test System: AMES SALMONELLA TYPHIMURIUM, Strain/Indicator: TA1537, Metabolic Activation: RAT, LIVER, S-9, AROCLOR 1254, Method: STANDARD PLATE): inactive; negative
mutagenic call (Test System: AMES SALMONELLA TYPHIMURIUM, Strain/Indicator: TA1538, Metabolic Activation: NONE, Method: STANDARD PLATE): inactive; negative
mutagenic call (Test System: AMES SALMONELLA TYPHIMURIUM, Strain/Indicator: TA1538, Metabolic Activation: RAT, LIVER, S-9, AROCLOR 1254, Method: STANDARD PLATE): inactive; negative
mutagenic call (Test System: CHO/HGPRT, Strain/Indicator: CHO-K1-BH4, Metabolic Activation: NONE, Method: STANDARD PLATE): inactive; negative
mutagenic call (Test System: CHO/HGPRT, Strain/Indicator: CHO-K1-BH4, Metabolic Activation: RAT, LIVER, S-9, AROCLOR 1254, Method: STANDARD PLATE): inactive; negative

O=[N+]([O-])c1ccc2c(c1)-c1nc3ccccc3c3c1c-2nc1ccccc13
mutagenic call [1]: active; positive
mutagenic call (Test System: AMES SALMONELLA TYPHIMURIUM, Strain/Indicator: TA98, Metabolic Activation: RAT LIVER S-9, AROCLOR 1254, Method: STANDARD PLATE): active; positive
mutagenic call (Test System: ESCHERICHIA COLI, Strain/Indicator: WP2 UVR A, Metabolic Activation: NONE, Method: STANDARD PLATE): inactive; negative
mutagenic call (Test System: ESCHERICHIA COLI, Strain/Indicator: WP2 UVR A, Metabolic Activation: RAT LIVER S-9, AROCLOR 1254, Method: STANDARD PLATE): inactive; negative
